Test results: patent US6664040B2, “Compositions and methods for delivery of a molecule into a cell” (priority 2000, dated 2003)

Columns and labels:
[1] = Dynamic light scattering (DLS); assay type: physicochemical
Protocol: DLS was performed on a DynaPro-801 Molecular Sizing Instrument. Protein solutions (250 μl) prepared either in water or in 50% aqueous TFE at a concentration of ˜3 mg ml^−1 (sVpr) or 4 mg ml^−1 (Vpr^47-96) were injected through a 0.1-μm Whatman membrane filter. Samples were illuminated by a semiconductor laser (780 nm, 25 mW) generated by a miniature solid-state Ga1-yAlyAs-diode. The photons scattered at a 90° angle by the particles in the sample were collected by an avalanche photodiode, and the time-dependent fluctuation in intensity of the scattered light was analyzed. The translational diffusion coefficient DT was calculated with the manufacturer's software (Dynamics, version 2.1). DT was then used to calculate the degree of sample polydispersity and the hydrodynamic radius of gyration RH of the particles using the Stokes-Einstein equation: (RH=(kbT)*(6πηDT)^−1 where kb=Boltzman's constant, T=absolute temperature in Kelvin, and η=solvent viscosity). Mr was calculated on a standard curve (Mr vs. RH) supplied by the manufacturer. Ten continuous measurements were made for each sample.

Jurkat T cells [2] = assay: G2 cell cycle arrest in transduced Jurkat T cells; assay type: cell-based, human; settings: transduced subpopulations
From the text: (§1) Full length Vpr was chemically synthesized and fluorescently labeled, purified by reverse phase HPLC, and added to the extracellular media of various cell cultures. Flow cytometry and epifluorescence microscopy were employed to monitor cellular uptake of sVpr. The distribution of cells within different phases of the cell cycle was studied by To-Pro-3 dye staining of DNA followed by flow cytometric analysis.

Jurkat T cells [3] = assay: Apoptosis induction in Jurkat T cells; assay type: cell-based, human; settings: by 3 days
HIV-1 ΔVpr = HIV-1 ΔVpr replication in macrophages (RT activity) with sVpr in the extracellular medium; assay type: cell-based; settings: monocyte-derived macrophages
cells [4] = assay: Trypsin-insensitive cellular uptake at 37° C. or 4° C. (geometric mean fluorescence); assay type: cell-based; settings: presence or absence of trypsin
From the text: as §1

[5] = system: rat yolk choriocarcinoma L2-RYC cells; assay: Cellular uptake of 125I-labeled peptides; assay type: cell-based
Protocol: sVpr and Vpu^32-81 were iodinated with the chloramine-T method. Briefly, ˜20 μg of peptides were reacted with 5.5×10^7 Bq (1.5 mCi) Na^125I. Free iodine was removed by gel filtration through a Dowex ion-exchange column saturated with bovine serum albumin (BSA). For studies on cellular uptake, rat yolk choriocarcinoma L2-RYC cells were grown in Dulbecco's modified Eagle's medium (DMEM) with 10% (v/v) fetal bovine serum (FBS) to 75% confluence on 24-well plates. Cells were washed once with phosphate-buffered saline (PBS) and incubated in serum-free DMEM supplemented with 0.1% BSA and ^125I-labeled sVpr or, as a negative control, ^125I-labeled Vpu^32-81. Radioactive peptides were added to the medium at a specific activity of 18 kBq ml^−1. In parallel, cells were also treated with a 100-fold excess of unlabeled sVpr or Vpu^32-81. Cells were incubated for specified times at 37° C., and the distribution of intra- and extracellular radioactivity was determined as described (50). […] Radioactivity was determined in triplicate in the medium and cell layer. To correct for nonspecific binding of peptides to the cell surface, the cell layer radioactivity determined at time point 0 min (time when radiolabeled peptides were added to the medium for less than 30 sec) was subtracted as background from the radioactivity detected in the cell layer.

cells [6] = assay: Transduction with and without urea denaturation (percent of cells FITC+); assay type: cell-based
From the text: as §1

[7] = system: peripheral blood mononuclear cells; assay: Transduction of freshly isolated peripheral blood mononuclear cells; assay type: cell-based, human
From the text: as §1

[8] = Solubility / absence of precipitation in aqueous solution; assay type: physicochemical
HIV-1 virions = assay: Incorporation of sVpr into HIV-1 virions (western blot); assay type: cell-based; settings: anti-Vpr and anti-p24
Jurkat T cells [9] = assay: sVpr uptake by Jurkat T cells (flow cytometry); assay type: cell-based, human
From the text: as §1

[10] = Immunization of rabbits with sVpr; assay type: in vivo, rabbit; settings: used to generate polyclonal and monoclonal antibodies
From the text: A rabbit polyclonal antiserum, R-96, was generated by immunization with sVpr.

[11] = target: synthetic Vpr (sVpr), full-length, sequence derived from the isolate HIV-1 NL4-3 (HIV-1 (isolate NL4-3)) (UniProt P12520); assay: SDS-PAGE without reducing agent, silver stain; dimers prevented by DTT

Vpr^47-96: peptide comprising the C-terminal domain of sVpr from positions Tyr-47 to Ser-96
hydrodynamic radius RH of major species (monomer, 94.2% abundance) ([1]; 50% TFE): 1.25 | hydrodynamic radius RH ([1]; pure water (sVpr: 3.8 mg ml^−1, pH 3.0; components of 14% and 86% abundance)): ~3 nm

sVpr: synthetic full-length 96-amino acid HIV-1 Vpr, sequence derived from isolate HIV-1 NL4-3 (SEQ ID NO: 1), made by solid-phase peptide synthesis
hydrodynamic radius RH (average) ([1]; 50% TFE): 2.3 nm | G2 cell cycle arrest (Jurkat T cells [2]): induces a dose-dependent G2 cell cycle arrest | apoptotic cells (Jurkat T cells [3]): approximately 90% | replication of HIV viruses lacking Vpr (HIV-1 ΔVpr): significantly increases | cell entry at 4° C. (cells [4]): enters cells at 4 °C | level of intracellular peptide, maximum ([5]; 125I-labeled, within 2 hours, 37° C.): 8-10% | uptake with 100-fold excess of unlabeled sVpr ([5]; 120 min): not inhibited | effect of urea denaturation on transduction properties (cells [6]): does not enhance | transduction of CD4+, CD8+, CD3− lymphocytes and CD14+ monocytes ([7]; freshly isolated mixed cell populations): equivalently transduced | transduction of freshly isolated primary human cells ([7]; nanomolar concentrations): rapidly and strongly transduces | concentration at which no precipitation was observed ([8]; aqueous solution): ≥ 4000 µg/mL | precipitation under CD solution conditions ([8]; phosphate buffer pH 3.9 to 7.2, water, TFE): no precipitation | incorporation into newly produced HIV-1 virions (HIV-1 virions): is incorporated into newly produced HIV-1 virions | transduction of Jurkat T cells (Jurkat T cells [9]; 7.5, 15, 30 μg/ml): dose-dependent fashion | Cy3-positive cells (uptake) (Jurkat T cells [9]; Jurkat T cells, at 5 min): > 75% | immunogenicity [10]: highly immunogenic

synthetic Vpr (sVpr), full-length, sequence derived from the isolate HIV-1 NL4-3 (from UniProt P12520 1-96)
percent of molecules as disulfide-linked dimers [11]: 10%
